# Reference: ChEMBL document CHEMBL1138741, “Virulence regulation and quorum sensing in staphylococcal infections: competitive AgrC antagonists as quorum sensing inhibitors” (J Med Chem, 2004)
# Where “and” joins values, the source holds several entries; their conditions need not be identical. Identical values can stand only once. Where a SMILES comes first, the peptide text is derived from it.
# Columns and labels:
# [1] = target: T1, Receptor-histidine kinase AgrC (Staphylococcus aureus, UniProt O07911); assay: Concentration required to inhibit quorum sensor of Staphylococcus aureus
# T1 sequence (O07911 whole entry): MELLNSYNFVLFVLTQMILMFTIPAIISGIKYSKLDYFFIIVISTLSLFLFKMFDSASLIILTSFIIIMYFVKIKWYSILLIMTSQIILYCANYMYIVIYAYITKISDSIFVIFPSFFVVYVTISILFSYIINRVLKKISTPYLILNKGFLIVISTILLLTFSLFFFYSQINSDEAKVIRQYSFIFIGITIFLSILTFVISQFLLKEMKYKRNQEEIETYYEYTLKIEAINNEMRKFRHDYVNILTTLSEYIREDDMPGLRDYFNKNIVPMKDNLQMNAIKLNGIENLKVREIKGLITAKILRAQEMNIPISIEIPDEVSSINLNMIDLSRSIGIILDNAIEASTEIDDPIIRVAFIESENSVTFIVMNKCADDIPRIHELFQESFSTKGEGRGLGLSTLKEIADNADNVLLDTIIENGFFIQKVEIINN
# [2] = target: T1, Receptor-histidine kinase AgrC; assay: Effective concentration to antagonise accessory gene regulator C1 of Staphylococcus aureus; range = 9-11 uM; type: functional
# [3] = target: T1, Receptor-histidine kinase AgrC; assay: Concentration required to antagonise accessory gene regulator C4 of Staphylococcus aureus; type: functional
# [4] = target: T1, Receptor-histidine kinase AgrC; assay: Effective concentration to antagonise accessory gene regulator C2 of Staphylococcus aureus; type: functional
# [5] = target: T1, Receptor-histidine kinase AgrC; assay: Concentration required to antagonise accessory gene regulator C3 of Staphylococcus aureus; type: functional
# [6] = target: T1, Receptor-histidine kinase AgrC; assay: Concentration required to antagonise accessory gene regulator C2 of Staphylococcus aureus; type: functional
# [7] = target: T1, Receptor-histidine kinase AgrC; assay: Antagonistic concentration for accessory gene regulator C1 of Staphylococcus aureus; type: functional
# [8] = target: T1, Receptor-histidine kinase AgrC; assay: Effective concentration to antagonise accessory gene regulator C4 of Staphylococcus aureus; type: functional
# [9] = target: T1, Receptor-histidine kinase AgrC; assay: Effective concentration to antagonise accessory gene regulator C3 of Staphylococcus aureus; type: functional
Molecule,IC50 [1],IC50 [3] [nM],IC50 [5] [nM],IC50 [6] [nM],IC50 [7] [nM],other results
CC[C@H](C)[C@@H]1NC(=O)[C@H](Cc2ccccc2)NC(=O)[C@H](C)NC(=O)[C@@H](NC(=O)[C@@H](NC(=O)[C@H](CO)NC(=O)[C@@H](N)Cc2ccc(O)cc2)[C@@H](C)O)CSC(=O)[C@@H](CCSC)NC1=O,256 nM and 30 nM,,,,,
"CC[C@H](C)[C@@H]1NC(=O)[C@H](Cc2ccccc2)NC(=O)[C@H](CC(=O)O)NC(=O)[C@@H](NC(=O)[C@@H](NC(=O)[C@H](CO)NC(=O)[C@@H](N)Cc2ccc(O)cc2)[C@@H](C)O)CSC(=O)[C@H](CCSC)NC1=O (HELM PEPTIDE1{Y.S.T.C.D.F.I.M}$PEPTIDE1,PEPTIDE1,4:R3-8:R2$$$V2.0)",,,,,,EC50 [2]: 11000 nM
"CC[C@H](C)[C@@H]1NC(=O)[C@H](Cc2ccccc2)NC(=O)[C@H](CC(=O)O)NC(=O)[C@@H](NC(C)=O)CSC(=O)[C@H](CCSC)NC1=O (HELM PEPTIDE1{[ac].C.D.F.I.M}$PEPTIDE1,PEPTIDE1,2:R3-6:R2$$$V2.0)",8000 nM,,,,,
"CC(C)C[C@@H]1NC(=O)[C@H](CO)NC(=O)[C@H](CO)NC(=O)[C@@H](NC(=O)[C@H](C)NC(=O)[C@H](CC(N)=O)NC(=O)[C@@H](NC(=O)CN)C(C)C)CSC(=O)[C@H](Cc2ccccc2)NC1=O [GVNACSSLF] (HELM PEPTIDE1{G.V.N.A.C.S.S.L.F}$PEPTIDE1,PEPTIDE1,5:R3-9:R2$$$V2.0)",,86,1,,,EC50 [4]: 3.6 nM
"CC[C@H](C)[C@@H]1NC(=O)[C@H](Cc2ccccc2)NC(=O)[C@H](Cc2ccc(O)cc2)NC(=O)[C@@H](NC(=O)[C@@H](NC(=O)[C@H](CO)NC(=O)[C@@H](N)Cc2ccc(O)cc2)[C@@H](C)O)CSC(=O)[C@H](CCSC)NC1=O [YSTCYFIM] (HELM PEPTIDE1{Y.S.T.C.Y.F.I.M}$PEPTIDE1,PEPTIDE1,4:R3-8:R2$$$V2.0)",,,1,4,7000,EC50 [8]: 13 nM
H-INCDFLL-OH,,150,,6,70,EC50 [9]: 26 nM
